The source of these data is patent US9062046B2, “Substituted imidazoquinoline derivatives as kinase inhibitors” (Piramal Enterprises Limited, priority 2011, dated 2015).

One test deals with PC3 (prostate cell line). The test is described as follows: Cytotoxicity assay (propidium iodide assay), PC3. Type of test: cell-based. To be noted: PC3 cells, 48 h treatment; for IC50 / inhibition at 1 µM: Homo sapiens, PC-3. As for the experimental part:
(§1) The assay was designed as in the reference, Anticancer Drugs, 2002, 13, 1-8, the disclosure of which is incorporated by reference for the teaching of the assay.
(§2) Cells from cell lines A2780 (ovarian cell line) and PC3 (prostate cell line) (both from ATCC) were seeded at a density of 3000 cells/well in a white opaque 96-well plate. Following incubation at 37° C./5% CO2 for a period of 18-24 h, the cells were treated with various concentrations (stock solution was prepared in DMSO and subsequent dilutions were made in media as per ATCC guidelines) of the test compounds for a period of 48 h. At the end of treatment, the culture medium was discarded, the cells were washed with 1×PBS and 200 μl of 7 μg/ml propidium iodide was added to each well. The plates were frozen at −70° C. overnight. For analysis, the plates were warmed to RT, allowed to thaw and were read in PoleStar fluorimeter with the fluorescence setting. The percentage of viable cells in the non-treated set of wells was considered to be 100 and the percentage viability following treatment was calculated accordingly. IC50 values were calculated from graphs plotted using these percentages.

The test system of test [1] is A2780 (ovarian cell line). The test is described as follows: Cytotoxicity assay (propidium iodide assay), A2780. It is filed as cell-based. The conditions noted are these: A2780 cells, 48 h treatment; for IC50 / inhibition at 1 µM: Homo sapiens. The protocol:
as §1, §2

With `Cn1c(=NC#N)n(-c2ccc(C#N)nc2)c2c3cc(-c4cnc(N)c(C(F)(F)F)c4)ccc3ncc21` [Example 10, N-(8-(6-amino-5-(trifluoromethyl)pyridin-3-yl)-1-(6-cyanopyridin-3-yl)-3-methyl-1H-imidazo[4,5-c]quinolin-2(3H)-ylidene)cyanamide], the 50% inhibitory concentration (IC50) (in the test on PC3 (prostate cell line); in test [1]) was at most 0.5 µM throughout.

On to `COc1ccc(-c2ccc3ncc4c(c3c2)n(-c2ccc(OC)nc2)c(=NC#N)n4C)cn1` [Example 48, N-(1,8-bis(6-methoxypyridin-3-yl)-3-methyl-1H-imidazo[4,5-c]quinolin-2(3H)-ylidene)cyanamide], for which the inhibition at 1 µM was 30 to 70% in the test with PC3 (prostate cell line) (1 μM) and at least 70% in test [1] (1 μM).

With `Cn1c(=NC#N)n(-c2ccc(OC(F)(F)F)cc2)c2c3cc(-c4cccnc4)ccc3ncc21` [Example 108, N-(3-methyl-8-(pyridin-3-yl)-1-(4-(trifluoromethoxy)phenyl)-1H-imidazo[4,5-c]quinolin-2(3H)-ylidene)cyanamide], the IC50 was 0.5 to 2 µM in the test with PC3 (prostate cell line) and at most 0.5 µM in test [1].

On to `Cn1c(=NC#N)n(-c2ccc(C(C)(C)C#N)nc2)c2c3cc(-c4cccc(C(F)(F)F)c4)ccc3ncc21` [Example 69, N-(1-(6-(2-cyanopropan-2-yl)pyridin-3-yl)-3-methyl-8-(3-(trifluoromethyl)phenyl)-1H-imidazo[4,5-c]quinolin-2(3H)-ylidene)cyanamide], for which the inhibition at 1 µM in the test with PC3 (prostate cell line) (1 μM) was 30 to 70%; in test [1] (1 μM) it was at least 70%.

For the compound `COc1ccc(-c2ccc3ncc4c(c3c2)n(-c2ccc(C(C)(C)C#N)nc2)c(=NC#N)n4C)cc1OC` [Example 66, N-(1-(6-(2-cyanopropan-2-yl)pyridin-3-yl)-8-(3,4-dimethoxyphenyl)-3-methyl-1H-imidazo[4,5-c]quinolin-2(3H)-ylidene)cyanamide], the inhibition at 1 µM (with PC3 (prostate cell line) (1 μM); in test [1] (1 μM)) was at least 70% each time.

On to `COC(=O)c1cc(-c2ccc3ncc4c(c3c2)n(-c2ccc(C(C)(C)C#N)nc2)c(=NC#N)n4C)cnc1N` [Example 137, Methyl 2-amino-5-(2-(cyanoimino)-1-(6-(2-cyanopropan-2-yl)pyridin-3-yl)-3-methyl-2,3-dihydro-1H-imidazo[4,5-c]quinolin-8-yl)nicotinate], for which the IC50 (in the test on PC3 (prostate cell line); in test [1]) was at most 0.5 µM in each case.

In the case of `COc1ccc(-n2c(=NC#N)n(C)c3cnc4ccc(-c5ccc(OC)c(OC)c5)cc4c32)cn1` [Example 36, N-(8-(3,4-dimethoxyphenyl)-1-(6-methoxypyridin-3-yl)-3-methyl-1H-imidazo[4,5-c]quinolin-2(3H)-ylidene)cyanamide], the inhibition at 1 µM (in the test on PC3 (prostate cell line) (1 μM); in test [1] (1 μM)) was at least 70% throughout.

As for `COc1ncc(-c2ccc3ncc4c(c3c2)n(-c2ccc(OC(F)(F)F)cc2)c(=NC#N)n4C)cc1N` [Example 106, N-(8-(5-amino-6-methoxypyridin-3-yl)-3-methyl-1-(4-(trifluoromethoxy)phenyl)-1H-imidazo[4,5-c]quinolin-2(3H)-ylidene)cyanamide], the IC50 (in the test with PC3 (prostate cell line); in test [1]) was at most 0.5 µM each time.

Consider `Cn1c(=NC#N)n(-c2ccc(C(C)(C)C#N)nc2)c2c3cc(-c4ccnc(N5CCOCC5)c4Cl)ccc3ncc21` [Example 121, N-(8-(3-chloro-2-morpholinopyridin-4-yl)-1-(6-(2-cyanopropan-2-yl)pyridin-3-yl)-3-methyl-1H-imidazo[4,5-c]quinolin-2(3H)-ylidene)cyanamide], for which the inhibition at 1 µM (with PC3 (prostate cell line) (1 μM); in test [1] (1 μM)) was below 30% throughout.

With `COc1ccc(-n2c(=NC#N)n(C)c3cnc4ccc(-c5cc(F)ccc5OC)cc4c32)cn1` [Example 47, N-(8-(5-fluoro-2-methoxyphenyl)-1-(6-methoxypyridin-3-yl)-3-methyl-1H-imidazo[4,5-c]quinolin-2(3H)-ylidene)cyanamide], the inhibition at 1 µM (in the test with PC3 (prostate cell line) (1 μM); in test [1] (1 μM)) was below 30% each time.

“N-(1-(6-methoxypyridin-3-yl)-3-methyl-8-(4-(trifluoromethyl)phenyl)-1H-imidazo[4,5-c]quinolin-2(3H)-ylidene)cyanamide [Example 43]”: the “% Inhibition at 1 μM, PC3” value in the test on PC3 (prostate cell line) (1 μM) was “+ (<30%)”. The “% Inhibition at 1 μM, A2780” value in test [1] (1 μM) is listed as “+ (<30%)”.

With `COc1ncc(-c2ccc3ncc4c(c3c2)n(-c2ccc(C(C)(C)C#N)nc2)c(=NC#N)n4C)c(OC)n1` [Example 55, N-(1-(6-(2-cyanopropan-2-yl)pyridin-3-yl)-8-(2,4-dimethoxypyrimidin-5-yl)-3-methyl-1H-imidazo[4,5-c]quinolin-2(3H)-ylidene)cyanamide], the inhibition at 1 µM was 30 to 70% with PC3 (prostate cell line) (1 μM) and at least 70% in test [1] (1 μM).

Consider `COc1cc(OC)cc(-n2c(=NC#N)n(C)c3cnc4ccc(-c5cccnc5)cc4c32)c1` [Example 102, N-(1-(3,5-dimethoxyphenyl)-3-methyl-8-(pyridin-3-yl)-1H-imidazo[4,5-c]quinolin-2(3H)-ylidene)cyanamide], for which the inhibition at 1 µM is below 30% in the test with PC3 (prostate cell line) (1 μM) and at least 70% in test [1] (1 μM).

Turning to `Cn1c(=NC#N)n(-c2ccc(C(C)(C)C#N)nc2)c2c3cc(-c4cccc5ccccc45)ccc3ncc21` [Example 82, N-(1-(6-(2-cyanopropan-2-yl)pyridin-3-yl)-3-methyl-8-(naphthalen-1-yl)-1H-imidazo[4,5-c]quinolin-2(3H)-ylidene)cyanamide], the inhibition at 1 µM in the test on PC3 (prostate cell line) (1 μM) is below 30%; in test [1] (1 μM), 30 to 70%.

In the case of `CC(C)Oc1ccccc1-c1ccc2ncc3c(c2c1)n(-c1ccc(C(C)(C)C#N)nc1)c(=NC#N)n3C` [Example 65, N-(1-(6-(2-cyanopropan-2-yl)pyridin-3-yl)-8-(2-isopropoxyphenyl)-3-methyl-1H-imidazo[4,5-c]quinolin-2(3H)-ylidene)cyanamide], the inhibition at 1 µM (with PC3 (prostate cell line) (1 μM); in test [1] (1 μM)) was below 30% throughout.

Regarding `COc1ccc(-c2ccc3ncc4c(c3c2)n(-c2ccc(C(C)(C)C#N)cc2)c(=NC#N)n4C)cn1` [Example 91, N-(1-(4-(2-cyanopropan-2-yl)phenyl)-8-(6-methoxypyridin-3-yl)-3-methyl-1H-imidazo[4,5-c]quinolin-2(3H)-ylidene)cyanamide], the IC50 (with PC3 (prostate cell line); in test [1]) was at most 0.5 µM in each case.

Regarding `Cn1c(=NC#N)n(-c2ccc(C(C)(C)C#N)cc2)c2c3cc(C4=CCN(C(=O)OC(C)(C)C)CC4)ccc3ncc21` [Example 89, tert-butyl 4-(2-(cyanoimino)-1-(4-(2-cyanopropan-2-yl)phenyl)-3-methyl-2,3-dihydro-1H-imidazo[4,5-c]quinolin-8-yl)-5,6-dihydropyridine-1(2H)-carboxylate], the figures for the inhibition at 1 µM (in the test with PC3 (prostate cell line) (1 μM); in test [1] (1 μM)) were below 30% and 30 to 70%, respectively.

`Cn1c(=NC#N)n(-c2ccc(OC(F)(F)F)cc2)c2c3cc(-c4cnc(N)c(C(F)(F)F)c4)ccc3ncc21` [Example 105, N-(8-(6-amino-5-(trifluoromethyl)pyridin-3-yl)-3-methyl-1-(4-(trifluoromethoxy)phenyl)-1H-imidazo[4,5-c]quinolin-2(3H)-ylidene)cyanamide]: the concentration for half-maximal inhibition (IC50) (with PC3 (prostate cell line); in test [1]) was at most 0.5 µM each time.

Turning to `Cc1ccc(-c2ccc3ncc4c(c3c2)n(-c2ccc(C(C)(C)C#N)nc2)c(=NC#N)n4C)cc1` [Example 67, N-(1-(6-(2-cyanopropan-2-yl)pyridin-3-yl)-3-methyl-8-p-tolyl-1H-imidazo[4,5-c]quinolin-2(3H)-ylidene)cyanamide], the inhibition at 1 µM (in the test with PC3 (prostate cell line) (1 μM); in test [1] (1 μM)) was 30 to 70% each time.

For `COc1ccc(-n2c(=NC#N)n(C)c3cnc4ccc(-c5cnc(N)c(C(F)(F)F)c5)cc4c32)c(Cl)n1` [Example 4, N-(8-(6-amino-5-(trifluoromethyl)pyridin-3-yl)-1-(2-chloro-6-methoxypyridin-3-yl)-3-methyl-1H-imidazo[4,5-c]quinolin-2(3H)-ylidene)cyanamide], the IC50 (with PC3 (prostate cell line); in test [1]) was at most 0.5 µM in each case.

As for `COc1ccc(-n2c(=NC#N)n(C)c3cnc4ccc(-c5cnc6ccccc6c5)cc4c32)cn1` [Example 3, N-(1-(6-methoxypyridin-3-yl)-3-methyl-8-(quinolin-3-yl)-1H-imidazo[4,5-c]quinolin-2(3H)-ylidene)cyanamide], the half-inhibitory concentration (IC50) (with PC3 (prostate cell line); in test [1]) was at most 0.5 µM throughout.

For `Cn1c(=NC#N)n(-c2ccc(C(C)(C)C#N)nc2)c2c3cc(-c4cccnc4F)ccc3ncc21` [Example 64, N-(1-(6-(2-cyanopropan-2-yl)pyridin-3-yl)-8-(2-fluoropyridin-3-yl)-3-methyl-1H-imidazo[4,5-c]quinolin-2(3H)-ylidene)cyanamide], the results for the inhibition at 1 µM (with PC3 (prostate cell line) (1 μM); in test [1] (1 μM)) were below 30% and 30 to 70%, respectively.

On to `COc1ncc(-c2ccc3ncc4c(c3c2)n(-c2ccc(C(C)(C)C#N)cc2)c(=NC#N)n4C)cc1NS(=O)(=O)c1ccc(F)cc1F` [Example 135, N-(5-(2-(cyanoimino)-1-(4-(2-cyanopropan-2-yl)phenyl)-3-methyl-2,3-dihydro-1H-imidazo[4,5-c]quinolin-8-yl)-2-methoxypyridin-3-yl)-2,4-difluorobenzenesulfonamide], for which the inhibition at 1 µM (in the test with PC3 (prostate cell line) (1 μM); in test [1] (1 μM)) was at least 70% each time.

One may read the IC50 as the concentration needed to halve the response being measured. Broadly, the inhibition is the share of the control response that was lost under treatment. Low readings indicate a weak effect, high ones a strong effect.
